{"source": "ChEMBL document CHEMBL4610029", "about": "“Essential structure of orexin 1 receptor antagonist YNT-707, part V: Structure-activity relationship study of the substituents on the 17-amino group” (Bioorg Med Chem Lett, 2020)"}
{"target": "T1, Orexin/Hypocretin receptor type 1 (Homo sapiens, UniProt O43613)", "T1 sequence (O43613 whole entry)": "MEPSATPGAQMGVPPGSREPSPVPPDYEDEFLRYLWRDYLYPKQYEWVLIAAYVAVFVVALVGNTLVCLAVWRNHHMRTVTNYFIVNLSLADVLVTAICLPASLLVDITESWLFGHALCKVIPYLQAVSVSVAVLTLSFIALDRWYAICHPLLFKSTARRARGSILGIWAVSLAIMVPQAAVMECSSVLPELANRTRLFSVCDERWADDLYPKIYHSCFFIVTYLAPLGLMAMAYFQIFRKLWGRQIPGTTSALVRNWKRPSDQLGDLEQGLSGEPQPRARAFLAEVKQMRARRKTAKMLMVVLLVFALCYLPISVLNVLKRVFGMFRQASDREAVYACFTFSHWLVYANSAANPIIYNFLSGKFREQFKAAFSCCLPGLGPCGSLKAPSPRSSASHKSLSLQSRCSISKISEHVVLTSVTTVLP", "assay": "(§1) Antagonist activity at OX1R (unknown origin) assessed as inhibition of orexin A-induced intracellular Ca2+ release by cell-based assay", "type": "functional", "conditions": "not given; call rule not given here"}
{"smiles": "COc1ccc2c3c1O[C@@H]1C3[C@@](O)(CC[C@H]1N(C)C(=O)/C=C/c1ccoc1)[C@H](NCC1CC1)C2", "note": "(stereo partly specified)", "Ki": "Not Active"}
{"target": "T1, Orexin/Hypocretin receptor type 1", "assay": "as §1", "type": "functional", "conditions": "read-out: Ki", "units": {"Ki": "nM"}}
{"smiles": "COc1ccc2c3c1O[C@@H]1C3[C@@](O)(CC[C@H]1N(C)C(=O)/C=C/c1ccoc1)[C@H](N(CC1CC1)C(=O)OC(C)(C)C)C2", "note": "(stereo partly specified)", "Ki": 72.8}
{"smiles": "COc1ccc2c3c1O[C@@H]1C3[C@@H](CC[C@H]1N(C)C(=O)/C=C/c1ccoc1)[C@H](N(C)S(=O)(=O)c1ccccc1)C2", "note": "(stereo partly specified)", "Ki": 829}
{"smiles": "COc1ccc2c3c1O[C@@H]1C3[C@@H](CC[C@H]1N(C)C(=O)/C=C/c1ccoc1)[C@H](N(C)CC1CC1)C2", "note": "(stereo partly specified)", "Ki": 50.1}
{"smiles": "COc1ccc2c3c1O[C@@H]1C3[C@@](O)(CC[C@H]1N(C)C(=O)/C=C/c1ccoc1)[C@H](N(CC1CC1)C(=O)C1CC1)C2", "note": "(stereo partly specified)", "Ki": 1090}
{"smiles": "COc1ccc2c3c1O[C@@H]1C3[C@@](O)(CC[C@H]1N(C)C(=O)/C=C/c1ccoc1)[C@H](N(CC1CC1)C(=O)c1ccccc1)C2", "note": "(stereo partly specified)", "Ki": 275}
{"smiles": "COc1ccc2c3c1O[C@@H]1C3[C@]3(CC[C@H]1N(C)C(=O)/C=C/c1ccoc1)OC(=O)N(CC1CC1)[C@@H]3C2", "note": "(stereo partly specified)", "Ki": 538}
{"smiles": "COc1ccc2c3c1O[C@@H]1C3[C@@H](CC[C@H]1N(C)C(=O)/C=C/c1ccoc1)[C@H](NCC1CC1)C2", "note": "(stereo partly specified)", "Ki": 392}
{"smiles": "COc1ccc2c3c1O[C@@H]1C3[C@@H](CC[C@H]1N(C)C(=O)/C=C/c1ccoc1)[C@H](N(CC1CC1)C(=O)OC(C)(C)C)C2", "note": "(stereo partly specified)", "Ki": 14.8}
{"smiles": "COc1ccc2c3c1O[C@@H]1C3[C@]3(CC[C@H]1N(C)C(=O)/C=C/c1ccoc1)OS(=O)(=O)N(CC1CC1)[C@@H]3C2", "note": "(stereo partly specified)", "Ki": 1200}
{"target": "T2, Orexin/Hypocretin receptor type 1 (Homo sapiens) (UniProt O43613)", "T2 sequence (whole entry)": "T1 sequence (O43613 whole entry)", "assay": "Antagonist activity at OX1R (unknown origin) assessed as inhibition of orexin A-induced intracellular Ca2+ release at 10 uM by cell-based assay relative to control", "type": "functional", "conditions": "not given", "units": {"inhibition": "%"}}
{"smiles": "COc1ccc2c3c1O[C@@H]1C3[C@@](O)(CC[C@H]1N(C)C(=O)/C=C/c1ccoc1)[C@H](N(CC1CC1)C(C)=O)C2", "note": "(stereo partly specified)", "inhibition": 48}
